This note sets out measurements from US11945822B2, “Pyrazolo-triazine and/or pyrazolo-pxrimidine derivatives as selective inhibitor of cyclin dependent kinase” (QURIENT CO., LTD., priority 2018, dated 2024).

One experiment has as its system HCT116. The experiment in a line: Cellular HCT116 viability assay (CellTiter-Glo, 72 hours). The conditions noted are these: Homo sapiens, HCT-116. The experiment is classed as cell-based. Summed up:
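Cells plated in 96 wells and exposed to compound 72 h at 37 °C, 5% CO2, final DMSO below 0.1%, DMSO control. Viability by CellTiter-Glo luminescence, duplicate.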
On the technique in general: ATP-based viability assays read luminescence as a measure of living cells.

The subject of a further experiment is OVCAR-3. The experiment in a line: Cellular OVCAR-3 viability assay (CellTiter-Glo, 72 hours). Conditions: Homo sapiens. The experiment is classed as cell-based. The source says: Human T-cell acute lymphoblastic leukemia cell line, MOLT-4 (ATCC, Cat #CRL-1582), Human multiple myeloma cell line, RPMI-8226 (Invitrogen, Cat #22400-089) and MM.1S (ATCC, Cat #CRL-2974), NSCLC (Non-small cell lung cancer) cell line H460 (ATCC, Cat #HTB-177), Human colon colorectal carcinoma cell line HCT116 (ATCC, Cat #CCL-247), Human acute monocytic leukemia cell line MV4-11 (ATCC, Cat #CRL-9591), OVCAR-3 (ATCC, Cat #HTB-161) and A2780 (ECACC, Cat #93112519) were obtained from ATCC. Cells were grown in RPMI-1640 media (Invitrogen, Cat #22400-089) supplemented with 10% FBS (Invitrogen, Cat #10099141) and 1% penicillin/streptomycin (Invitrogen, Cat #15070063) and cultured at 37° C., 5% CO2 in a humidified chamber. All cell lines were routinely tested for mycoplasma.
The effect of the CDK7 inhibitor to inhibit the growth of target cancer cells was evaluated through the 72 hours time period of viability assay. Briefly, the candidate cell line ware plated in 96 well plate at the following density of cells respectively. 1×10^4 cells/well for MOLT-4, RPMI-8226, MV4-11 and MM.1S, 5×10^3 for H460, HCT116 and OVCAR-3 and IX 10^3 for A2780. After 24 hours, the cells were treated with various concentrations of the compound (ranging from 0.0015 uM to 10 uM). DMSO solvent without compound served as a control and final DMSO concentration less than 0.1%. After 72 hours of incubation at 37° C., 5% CO2 incubator, cells were analyzed for the viability using the CellTiter-Glo Luminescent Cell Viability Assay (Promega, Cat #G7570). All viability assays were performed in duplicate and Luminescence was read using an Envision (Perkin Elmer, USA). Data was analyzed using XLfit software.

For a further experiment, the target named is T1, CDK12 wt/CycK (Homo sapiens, UniProt Q9NYV4).
T1 construct: purchased ProQinase GmbH
The experiment can be described thus: In vitro IC50 profile for CDKs family kinase (33PanQinase radiometric assay). The conditions noted are these: CDK7 selectivity profile in CDKs family. Type of experiment: biochemical. The method, then:
(§1) In Vitro IC50 Profile for CDK7 Inhibitor Among 28 CDKs Family Kinases.
(§2) The IC50 profile of compounds were determined using 28 CDKs family protein kinases through ProQinase GmbH (Freiburg, Germany). All the protocol and materials had been provided by ProQinase GmbH. Briefly, in the process, 90 μl H2O were added to each well of a compound dilution plate. To minimize potential precipitation, the H2O was added to the plate only a few minutes before the transfer of the compound solutions into the assay plates. The plate was shaken thoroughly, resulting in a “compound dilution plate/10% DMSO”. The compound dilution plate(s) were discarded at the end of the working day. For the assays (see below), 5 μl solution from each well of the compound dilution plate were transferred into the assay plates. The final volume of the assay was 50 μl. All compounds were tested at 10 final assay concentrations in the range from 1×10^−05 M to 3×10^−10 M. The final DMSO concentration in the reaction cocktails was 1% in all cases. All protein kinases provided by ProQinase were expressed in Sf9 insect cells or in E. coli as recombinant GST-fusion proteins or His-tagged proteins, either as full-length or enzymatically active fragments. All kinases were produced from human cDNAs and purified by either GSH affinity chromatography or immobilized metal affinity chromatography. The purity of the protein kinases was examined by SDS-PAGE/Coomassie staining, the identity was checked by mass spectroscopy. Kinases from external vendors, Carna Biosciences Inc.; Invitrogen Corp.; and Millipore Corp., were expressed, purified and quality-controlled by virtue of the vendors readings. A radiometric protein kinase assay (^33PanQinase® Activity Assay) was used for measuring the kinase activity of the 28 protein kinases. All kinase assays were performed in 96-well FlashPlates™ from PerkinElmer (Boston, MA, USA) in a 50 μl reaction volume. The reaction cocktails were incubated at 30° C. for 60 minutes. The reaction was stopped with 50 μl of 2% (v/v) H3PO4, plates were aspirated and washed two times with 200 μl 0.9% (w/v) NaCl. Incorporation of ^33Pi was determined with a microplate scintillation counter (Microbeta, Wallac). All assays were performed with a BeckmanCoulter/SAGIAN™ Core System. As part of the data evaluation the low control value from a particular plate was subtracted from the high control value as well as from all 80 “compound values” of the corresponding plate. The residual activity (in %) for each well of a particular plate was calculated by using the following formula: Res. Activity (%)=100×[(cpm of compound−low control)/(high control−low control)]. Results are represented in table (table 10).

Another experiment addresses T2, CDK13/CycK (Homo sapiens, UniProt Q14004).
T2 construct: either as full-length or enzymatically active fragments; purchased ProQinase GmbH (Freiburg, Germany)
Described as above. The experiment is classed as biochemical. Conditions: CDK7 selectivity profile in CDKs family. The method, then: as §1, §2

For the next experiment, the target named is T3, CDK4/CycD1 (Homo sapiens, UniProt P11802).
T3 construct: purchased ProQinase GmbH
Described as above. The experiment is classed as biochemical. The conditions noted are these: CDK7 selectivity profile in CDKs family. The method, then: as §1, §2

T2 sequence (Q14004 whole entry, the tested form may be a part): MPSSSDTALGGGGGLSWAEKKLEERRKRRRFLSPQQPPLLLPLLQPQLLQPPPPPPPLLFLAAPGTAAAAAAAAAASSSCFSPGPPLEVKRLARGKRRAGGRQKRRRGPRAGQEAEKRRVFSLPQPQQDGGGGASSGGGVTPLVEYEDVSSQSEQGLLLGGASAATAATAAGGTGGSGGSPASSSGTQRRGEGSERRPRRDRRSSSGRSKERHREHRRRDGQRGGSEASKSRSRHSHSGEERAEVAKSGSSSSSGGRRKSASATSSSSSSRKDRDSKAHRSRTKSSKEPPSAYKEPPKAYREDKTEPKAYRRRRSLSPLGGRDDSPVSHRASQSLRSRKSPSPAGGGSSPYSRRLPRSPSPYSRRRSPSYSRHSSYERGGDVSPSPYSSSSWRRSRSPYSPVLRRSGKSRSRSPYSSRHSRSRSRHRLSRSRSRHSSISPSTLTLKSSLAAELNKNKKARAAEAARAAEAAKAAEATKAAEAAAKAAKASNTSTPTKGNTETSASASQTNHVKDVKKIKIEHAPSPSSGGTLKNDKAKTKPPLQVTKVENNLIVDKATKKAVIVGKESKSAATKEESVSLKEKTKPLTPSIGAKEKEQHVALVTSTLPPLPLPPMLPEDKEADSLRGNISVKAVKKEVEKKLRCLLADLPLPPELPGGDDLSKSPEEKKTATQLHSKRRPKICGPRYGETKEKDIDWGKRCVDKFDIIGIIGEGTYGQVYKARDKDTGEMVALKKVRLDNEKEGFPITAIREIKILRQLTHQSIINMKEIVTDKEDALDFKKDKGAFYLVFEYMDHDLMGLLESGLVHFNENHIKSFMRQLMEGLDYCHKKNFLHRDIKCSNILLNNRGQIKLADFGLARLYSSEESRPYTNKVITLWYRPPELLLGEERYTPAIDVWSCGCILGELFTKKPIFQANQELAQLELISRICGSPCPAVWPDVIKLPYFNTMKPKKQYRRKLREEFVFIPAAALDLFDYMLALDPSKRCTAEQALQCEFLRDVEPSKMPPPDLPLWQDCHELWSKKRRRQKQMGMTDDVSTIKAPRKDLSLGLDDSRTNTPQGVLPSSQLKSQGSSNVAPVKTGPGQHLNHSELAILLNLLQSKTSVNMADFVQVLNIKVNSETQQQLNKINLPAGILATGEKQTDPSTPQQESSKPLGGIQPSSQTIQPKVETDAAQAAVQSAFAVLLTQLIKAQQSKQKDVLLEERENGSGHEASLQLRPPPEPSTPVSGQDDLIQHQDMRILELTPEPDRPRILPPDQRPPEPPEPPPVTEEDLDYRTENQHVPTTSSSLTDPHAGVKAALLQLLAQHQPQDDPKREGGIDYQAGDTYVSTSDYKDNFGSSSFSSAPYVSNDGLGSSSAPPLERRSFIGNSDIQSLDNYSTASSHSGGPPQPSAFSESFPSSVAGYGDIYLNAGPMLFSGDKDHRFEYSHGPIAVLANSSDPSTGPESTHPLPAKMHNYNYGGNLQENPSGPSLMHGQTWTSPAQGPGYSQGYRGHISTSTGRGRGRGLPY
T2 sequence (O75909 whole entry partner, the tested form may be a part): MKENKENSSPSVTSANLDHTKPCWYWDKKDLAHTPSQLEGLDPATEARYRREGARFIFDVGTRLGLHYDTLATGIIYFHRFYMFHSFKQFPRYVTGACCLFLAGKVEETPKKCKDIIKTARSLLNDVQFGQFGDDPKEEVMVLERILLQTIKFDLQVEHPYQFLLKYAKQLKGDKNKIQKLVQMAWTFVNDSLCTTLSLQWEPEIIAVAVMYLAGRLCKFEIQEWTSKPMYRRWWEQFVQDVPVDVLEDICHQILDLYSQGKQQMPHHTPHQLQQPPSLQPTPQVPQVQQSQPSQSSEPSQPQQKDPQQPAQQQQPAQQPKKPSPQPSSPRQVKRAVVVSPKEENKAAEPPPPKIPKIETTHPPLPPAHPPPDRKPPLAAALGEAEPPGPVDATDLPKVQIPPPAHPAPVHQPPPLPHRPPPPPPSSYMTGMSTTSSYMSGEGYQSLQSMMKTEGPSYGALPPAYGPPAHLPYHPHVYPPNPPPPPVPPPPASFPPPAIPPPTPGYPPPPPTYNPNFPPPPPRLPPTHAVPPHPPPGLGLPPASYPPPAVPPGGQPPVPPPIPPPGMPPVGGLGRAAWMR
T1 sequence (Q9NYV4 whole entry): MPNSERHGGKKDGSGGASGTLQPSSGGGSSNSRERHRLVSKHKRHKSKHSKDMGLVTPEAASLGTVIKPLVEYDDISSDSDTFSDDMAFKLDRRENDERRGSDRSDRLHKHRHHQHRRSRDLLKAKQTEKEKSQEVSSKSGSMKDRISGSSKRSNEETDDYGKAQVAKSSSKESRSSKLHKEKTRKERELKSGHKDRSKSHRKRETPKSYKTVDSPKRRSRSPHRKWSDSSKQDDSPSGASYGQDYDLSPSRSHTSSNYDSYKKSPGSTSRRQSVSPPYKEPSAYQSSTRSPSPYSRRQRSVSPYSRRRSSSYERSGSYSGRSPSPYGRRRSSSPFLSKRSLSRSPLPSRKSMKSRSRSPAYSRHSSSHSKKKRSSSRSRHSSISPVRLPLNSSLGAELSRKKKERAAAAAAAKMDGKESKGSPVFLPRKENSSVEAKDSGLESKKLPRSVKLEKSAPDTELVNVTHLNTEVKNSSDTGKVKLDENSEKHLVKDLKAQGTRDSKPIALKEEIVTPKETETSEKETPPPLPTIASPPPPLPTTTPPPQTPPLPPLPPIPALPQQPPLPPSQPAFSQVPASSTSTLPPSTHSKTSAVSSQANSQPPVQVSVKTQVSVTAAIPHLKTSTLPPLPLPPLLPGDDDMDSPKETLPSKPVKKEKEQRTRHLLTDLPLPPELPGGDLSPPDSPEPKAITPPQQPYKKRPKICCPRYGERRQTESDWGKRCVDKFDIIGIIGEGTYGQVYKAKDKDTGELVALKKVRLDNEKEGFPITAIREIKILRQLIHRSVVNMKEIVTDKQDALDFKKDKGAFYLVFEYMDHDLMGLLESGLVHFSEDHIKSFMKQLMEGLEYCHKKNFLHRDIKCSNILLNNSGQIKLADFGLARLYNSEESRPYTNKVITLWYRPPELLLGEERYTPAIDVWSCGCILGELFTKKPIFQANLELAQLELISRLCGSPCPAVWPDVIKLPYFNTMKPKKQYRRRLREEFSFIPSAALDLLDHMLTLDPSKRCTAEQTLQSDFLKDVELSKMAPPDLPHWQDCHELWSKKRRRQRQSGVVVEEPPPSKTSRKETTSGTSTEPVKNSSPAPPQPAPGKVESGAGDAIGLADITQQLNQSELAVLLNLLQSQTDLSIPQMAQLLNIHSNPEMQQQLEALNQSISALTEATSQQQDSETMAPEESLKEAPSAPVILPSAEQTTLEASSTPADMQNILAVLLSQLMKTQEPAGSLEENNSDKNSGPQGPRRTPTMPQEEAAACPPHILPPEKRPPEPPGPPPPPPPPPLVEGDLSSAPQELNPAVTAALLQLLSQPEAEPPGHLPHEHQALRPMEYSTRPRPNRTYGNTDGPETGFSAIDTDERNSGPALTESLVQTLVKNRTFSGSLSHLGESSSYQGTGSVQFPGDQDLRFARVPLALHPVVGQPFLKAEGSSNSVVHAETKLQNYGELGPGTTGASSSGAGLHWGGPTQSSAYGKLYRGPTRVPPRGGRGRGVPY
T1 sequence (O75909 whole entry partner): as the sequence (O75909 whole entry partner, the tested form may be a part) above
T3 sequence (P11802 whole entry): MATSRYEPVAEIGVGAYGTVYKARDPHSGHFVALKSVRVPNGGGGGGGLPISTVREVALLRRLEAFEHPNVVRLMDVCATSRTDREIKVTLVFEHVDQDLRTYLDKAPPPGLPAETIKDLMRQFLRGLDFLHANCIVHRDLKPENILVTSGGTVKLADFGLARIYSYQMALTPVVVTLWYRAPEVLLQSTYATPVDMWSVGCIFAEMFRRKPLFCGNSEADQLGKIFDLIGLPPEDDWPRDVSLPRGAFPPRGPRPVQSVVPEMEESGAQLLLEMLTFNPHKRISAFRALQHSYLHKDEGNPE
T3 sequence (P24385 whole entry partner): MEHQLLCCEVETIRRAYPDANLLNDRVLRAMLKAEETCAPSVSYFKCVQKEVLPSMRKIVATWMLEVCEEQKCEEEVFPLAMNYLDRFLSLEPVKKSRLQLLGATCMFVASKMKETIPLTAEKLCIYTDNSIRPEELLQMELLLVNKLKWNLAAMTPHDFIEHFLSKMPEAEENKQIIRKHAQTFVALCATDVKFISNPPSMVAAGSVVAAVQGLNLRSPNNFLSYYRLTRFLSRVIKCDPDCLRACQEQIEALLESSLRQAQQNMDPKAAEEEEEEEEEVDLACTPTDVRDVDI

For `CC(C)c1cnn2c(NCc3c(Cl)cccc3-n3ccc(C(C)(C)O)n3)nc(N3CCC(N)CC3)nc12` [Compound 210], the IC50 (as a rule, the concentration that gives 50% inhibition) is under 1000 nM in the experiment on HCT116; at most 1000 nM in the experiment with OVCAR-3; over 10 µM on CDK12 wt/CycK; over 10 µM against CDK13/CycK; over 10 µM against CDK4/CycD1.
